Data set [1] relates to velvetleaf (Abutilon theophrasti). Nature of the data set: Test Example 2: soil surface treatment of field. In kind it is in vivo. Conditions: soil surface spray, dosage 500 g/ha, 19 days after application. The source says: (§1) A cylindrical plastic pot having a diameter of 10 cm and a depth of 10 cm was filled with soil and then seeded with ivyleaf morningglory (Ipomoea hederacea) and velvetleaf (Abutilon theophrasti). Then, each of the compounds 1-2, 1-42, 1-48, 2-2, 2-7, 2-42, 2-45, 3-2, 3-12, 4-7, 4-85, 5-12-R, 5-12-S, 5-17, 6-2, 7-2, 7-6, 7-8, 7-12, 7-48, 7-50, 7-84, 7-118, 7-119, 7-125, 9-7, 9-27 and 9-45 was formulated into an emulsifiable concentrate according to Formulation Example 2 and then diluted to the prescribed amount with water, and the dilution was uniformly sprayed over the surface of the soil with a sprayer at a rate of 1000 liters per hectare. After the application, the test plants were grown in the greenhouse for 19 days, and the herbicidal activity was examined.

Data set [2] concerns ivyleaf morningglory (Ipomoea hederacea). Nature of the data set: Test Example 2: soil surface treatment of field. Conditions: soil surface spray, dosage 500 g/ha, 19 days after application. In kind it is in vivo.
Excerpt: as §1

For data set [3], the system named is velvetleaf (Abutilon theophrasti). Nature of the data set: Test Example 1: foliar treatment of field. Conditions: foliar spray, dosage 125 g/ha, 16 days after application. In kind it is in vivo. How it is done:
(§2) A cylindrical plastic pot having a diameter of 10 cm and a depth of 10 cm was filled with soil and then seeded with ivyleaf morningglory (Ipomoea hederacea) and velvetleaf (Abutilon theophrasti). These test plants were grown in a greenhouse for 10 days. Then, each of compounds 1-2, 1-42, 1-45, 1-48, 2-2, 2-7, 2-42, 2-45, 3-2, 3-12, 4-7, 4-85, 5-12-R, 5-12-S, 5-17, 6-2, 7-2, 7-6, 7-8, 7-12, 7-48, 7-50, 7-84, 7-118, 7-119, 7-125, 9-7, 9-27 and 9-45 was formulated into an emulsifiable concentrate according to Formulation Example 2 and then diluted to the prescribed amount with water containing a spreading agent and the dilution was uniformly sprayed over the foliage of the test plants with a sprayer at a rate of 1000 liters per hectare. After the application, the test plants were grown in the greenhouse for 16 days, and the herbicidal activity was determined.

Data set [4] deals with ivyleaf morningglory (Ipomoea hederacea). Nature of the data set: Test Example 1: foliar treatment of field. In kind it is in vivo. Conditions: foliar spray, dosage 125 g/ha, 16 days after application. The method, then:
as §2

For data set [5], the system named is wild oat (Avena fatua). Nature of the data set: Test Example 7: foliar spray, herbicidal activity index. In kind it is in vivo. Conditions: 4 days after application, index 0-10. The method, then:
(§3) A plastic pot having longer side of 27 cm, shorter side of 19 cm and depth of 7 cm was filled with soil and then seeded with large crabgrass (Digitaria sanguinalis) and giant foxtail (Setaria faberi). Nine days after, barnyardgrass (Echinochloa crus-galli) was seeded therein and grown for 15 days in a greenhouse. Further, a plastic pot having longer side of 16.5 cm, shorter side of 12 cm and depth of 7 cm was filled with soil and then seeded with wild oat (Avena fatua), and grown for 18 days in a greenhouse. Then, each of the present compound 1-45 and B was formulated into an emulsifiable concentrate according to Formulation Example 2 and then diluted to the prescribed amount with water containing a spreading agent and the dilution was uniformly sprayed over the foliage of the test plants with a sprayer at a rate of 1000 liters per hectare. After the application, the test plants were grown in the greenhouse for 4 days, and the herbicidal activity was examined. (In the Table 13, the test plants are shown as follows.
(§4) Barnyardgrass: B, Large crabgrass: LC, Giant foxtail: GF, Wild oat: W

Data set [6] has as its system giant foxtail (Setaria faberi). The description is as above. Format: in vivo. Set-up: key: “0” means that there was no or little difference in the degree of germination or growth between the treated and the untreated tested plants at the time of examination; “10” means that the test plants died complete or their germination or growth was completely inhibited. Conditions: 4 days after application, index 0-10. How it is done: as §3, §4

The subject of data set [7] is barnyardgrass (Echinochloa crus-galli). The description is as above. Conditions: 4 days after application, index 0-10. Also on record: key: “0” means that there was no or little difference in the degree of germination or growth between the treated and the untreated tested plants at the time of examination; “10” means that the test plants died complete or their germination or growth was completely inhibited. In kind it is in vivo. The method, then:
as §3, §4

The subject of data set [8] is large crabgrass (Digitaria sanguinalis). Described as above. Format: in vivo. Set-up: key: “0” means that there was no or little difference in the degree of germination or growth between the treated and the untreated tested plants at the time of examination; “10” means that the test plants died complete or their germination or growth was completely inhibited. Conditions: 4 days after application, index 0-10. The method, then: as §3, §4

For data set [9], the system named is wild oat (Avena fatua). Nature of the data set: Test Example 6: foliar spray, herbicidal activity index. Conditions: 4 days after application, index 0-10. In kind it is in vivo. How it is done: as §3, with “1-67” for “1-45”, “A” for “B”, “1000liters” for “1000 liters”, “12,” for “13,”
as §4

The subject of data set [10] is large crabgrass (Digitaria sanguinalis). Described as above. Conditions: 4 days after application, index 0-10. In kind it is in vivo. The method, then:
as §3, with “1-67” for “1-45”, “A” for “B”, “1000liters” for “1000 liters”, “12,” for “13,”
as §4

For data set [11], the system named is giant foxtail (Setaria faberi). The description is as above. In kind it is in vivo. Also on record: key: “0” means that there was no or little difference in the degree of germination or growth between the treated and the untreated tested plants at the time of examination; “10” means that the test plants died complete or their germination or growth was completely inhibited. Conditions: 4 days after application, index 0-10. The method, then:
as §3, with “1-67” for “1-45”, “A” for “B”, “1000liters” for “1000 liters”, “12,” for “13,”
as §4

Data set [12] concerns barnyardgrass (Echinochloa crus-galli). The data set is described as above. Format: in vivo. Set-up: key: “0” means that there was no or little difference in the degree of germination or growth between the treated and the untreated tested plants at the time of examination; “10” means that the test plants died complete or their germination or growth was completely inhibited. Conditions: 4 days after application, index 0-10. The method, then:
as §3, with “1-67” for “1-45”, “A” for “B”, “1000liters” for “1000 liters”, “12,” for “13,”
as §4

As usually defined, the melting point is the temperature of the solid-liquid transition.

For the compound `COC(=O)COc1ncncc1Oc1cc(-n2c(=O)cc(C(F)(F)F)n(C)c2=O)c(F)cc1Cl` [Compound 4-7, 5-{2-chloro-4-fluoro-5-[3-methyl-2,6-dioxo-4-(trifluoromethyl)-1,2,3,6-tetrahydropyrimidin-1-yl]phenoxy}-4-(methoxycarbonyl)methoxypyrimidine], the melting point is 52.5 °C. Besides, the “growth of velvetleaf (herbicidal activity)” value (shortened to “growth of velvetleaf”) in data set [1] was “completely controlled”. In addition, the “growth of ivyleaf morningglory (herbicidal activity)” value (from here on “growth of ivyleaf morningglory”) in data set [2] is listed as “completely controlled”. Also, the “growth of velvetleaf” value in [3] is reported as “completely controlled”. Besides, in data set [4], the “growth of ivyleaf morningglory” value was “completely controlled”.

In turn, `COC(=O)COc1ncccc1Oc1cc(-n2c(=O)cc(C(F)(F)F)n(C)c2=O)c(F)cc1C#N` [Compound 9-27, 3-{2-cyano-4-fluoro-5-[3-methyl-2,6-dioxo-4-(trifluoromethyl)-1,2,3,6-tetrahydropyrimidin-1-yl]phenoxy}-2-(methoxycarbonyl)methoxypyridine] yielded a melting point of 173.1 °C. The “growth of velvetleaf” value in data set [1] was “completely controlled”. For the same compound, the “growth of ivyleaf morningglory” value in [2] was “completely controlled”. For the same compound, the “growth of velvetleaf” value in data set [3] is given as “completely controlled”. For the same compound, the “growth of ivyleaf morningglory” value in data set [4] is given as “completely controlled”.

With `COc1nc(OC)nc(Oc2cc(-n3c(=O)cc(C(F)(F)F)n(C)c3=O)c(F)cc2Cl)n1` [B, reference compound], the “Herbicidal activity W” value in the data set with wild oat (Avena fatua) [5] (dosage 32 g/ha) came out at 6; in the data set with wild oat (Avena fatua) [5] (dosage 125 g/ha) it was 9. In addition, the “Herbicidal activity GF” value in data set [6] (dosage 32 g/ha) amounted to 6; in [6] (dosage 125 g/ha) it was 8. For the same compound, the “Herbicidal activity B” value in data set [7] (dosage 32 g/ha) is 6; in data set [7] (dosage 125 g/ha), 8. The “Herbicidal activity LC” value in data set [8] (dosage 32 g/ha) and in data set [8] (dosage 125 g/ha) was 8 each time.

As to `COC(=O)COc1cc(OC)nc(Nc2cc(-n3c(=O)cc(C(F)(F)F)n(C)c3=O)c(F)cc2Cl)n1` [Compound 1-67, 2-{2-chloro-4-fluoro-5-[3-methyl-2,6-dioxo-4-(trifluoromethyl)-1,2,3,6-tetrahydropyrimidin-1-yl]phenylamino}-6-methoxy-4-(methoxycarbonyl)methoxypyrimidine], the “Herbicidal activity W” value with wild oat (Avena fatua) [9] (dosage 32 g/ha) stood at 8; in the data set with wild oat (Avena fatua) [9] (dosage 125 g/ha), 9. The “Herbicidal activity LC” value in data set [10] (dosage 32 g/ha) and in [10] (dosage 125 g/ha) was 9 in each case. The “Herbicidal activity GF” value in data set [11] (dosage 32 g/ha) and in [11] (dosage 125 g/ha) was 10 in each case. For the same compound, the “Herbicidal activity B” value in data set [12] (dosage 32 g/ha) and in [12] (dosage 125 g/ha) was 10 throughout.

`COC(=O)C(C)Oc1ccnc(Sc2cc(-n3c(=O)cc(C(F)(F)F)n(C)c3=O)c(F)cc2Cl)n1` (stereo not shown) [Compound 6-2, methyl 2-([2-{2-chloro-4-fluoro-5-[3-methyl-2,6-dioxo-4-(trifluoromethyl)-1,2,3,6-tetrahydropyrimidin-1-yl]phenylthio}pyrimidin-4-yl]oxy}propionate] returned a melting point of 60.2 °C. Moreover, the “growth of velvetleaf” value in data set [1] is reported as “completely controlled”. Moreover, in [2], the “growth of ivyleaf morningglory” value is “completely controlled”. For the same compound, in [3], the “growth of velvetleaf” value is listed as “completely controlled”. Moreover, in data set [4], the “growth of ivyleaf morningglory” value is reported as “completely controlled”.

Turning to `COC(=O)COc1cc(OC)nc(Oc2cc(-n3c(=O)cc(C(F)(F)F)n(C)c3=O)c(F)cc2Cl)n1` [Compound 1-45, 2-{2-chloro-4-fluoro-5-[3-methyl-2,6-dioxo-4-(trifluoromethyl)-1,2,3,6-tetrahydropyrimidin-1-yl]phenoxy}-6-methoxy-4-(methoxycarbonyl)methoxypyrimidine], the “Herbicidal activity W” value in the data set with wild oat (Avena fatua) [5] (dosage 32 g/ha) and in the data set on wild oat (Avena fatua) [5] (dosage 125 g/ha) was 9 in each case. In [3], the “growth of velvetleaf” value is on record as “completely controlled”. Moreover, in data set [4], the “growth of ivyleaf morningglory” value is recorded as “completely controlled”. For the same compound, the “Herbicidal activity GF” value in data set [6] (dosage 32 g/ha) and in data set [6] (dosage 125 g/ha) was 10 throughout. The “Herbicidal activity B” value in data set [7] (dosage 32 g/ha) and in data set [7] (dosage 125 g/ha) was 10 throughout. Also, the “Herbicidal activity LC” value in [8] (dosage 32 g/ha) and in data set [8] (dosage 125 g/ha) was 10 in each case.

For `COc1cc(OC)nc(Nc2cc(-n3c(=O)cc(C(F)(F)F)n(C)c3=O)c(F)cc2Cl)n1` [A, reference compound], the entries for the “Herbicidal activity W” value in the data set on wild oat (Avena fatua) [9] (dosage 32 g/ha) and in the data set with wild oat (Avena fatua) [9] (dosage 125 g/ha) were 2 and 3, respectively. Besides, the results for the “Herbicidal activity LC” value in data set [10] (dosage 32 g/ha) and in data set [10] (dosage 125 g/ha) were 6 and 8, respectively. Besides, the figures for the “Herbicidal activity GF” value in data set [11] (dosage 32 g/ha) and in data set [11] (dosage 125 g/ha) were 4 and 5, respectively. Besides, the “Herbicidal activity B” value in data set [12] (dosage 32 g/ha) and in [12] (dosage 125 g/ha) was 4 in each case.

Source of the values: patent publication US6537948B1, “Uracil compounds and use thereof” (Sumitomo Chemical Company, Limited, priority 2000, dated 2003).
